The test system of the experiment is spontaneously hypertensive rats. The experiment can be described thus: Hypotensive activity in spontaneously hypertensive rats (MABP). The class given is in vivo, rat (Okamoto strain). As to conditions: SHR, gavage, two doses of 10 mg/kg or less 24 h apart, MABP at 28 h; average baseline 160±1.5 mm Hg. As to the method:
The novel compounds of the present invention are active hypotensive agents and were tested for hypotensive activity by the method of P. S. Chan and D. Poorvin, Clinical and Experimental Hypertension, 1 (6), 817-830 (1979). Male, 16 week old, spontaneously hypertensive rats of the Okamoto strain, from Taconic Farms, Germantown, N.Y., having an average mean arterial blood pressure of 160±1.5 mm of mercury, were used in the test. One to 4 rats were used per test compound. A rat was dosed by gavage with a test compound, suspended in 2% pre-boiled starch at a concentration of 50 mg/ml, at a doses of 10 mg/kg of body weight or less, with 0.9% sodium chloride loading at a dose of 25 ml/kg of body weight. A second identical dose of the test compound, without sodium chloride loading was given 24 hours later. At 28 hours after initial dose the mean arterial blood pressure (MABP) was measured. The procedure was repeated in a second and third rat when necessary.

Regarding `Cl.Cl.c1cc2c3c(cccc3c1)C(NCCCCCCCCCCn1ccnc1)=N2` [N-(10-(1H-imidazol-1-yl)decyl)benz(cd)indol-2-amine, dihydrochloride], the “Avg. MABP in mm Hg (No. of Rats)” value was 124 mm Hg.

As to `O=C(c1cccc(C(F)(F)F)c1)N(CCCCc1cccnc1)C1=Nc2cccc3cccc1c23` [N-Benz(cd)indol-2-yl-N-(4-(3-pyridinyl)butyl)-3-trifluoromethylbenzamide], the “Avg. MABP in mm Hg (No. of Rats)” value came out at 115 mm Hg.

For `O=C(Nc1ccccc1)N(CCCn1ccnc1)C1=Nc2cccc3cccc1c23` [N-Benz(cd)indol-2-yl-N-(3-(1H-imidazol-1-yl)propyl)-N'-phenylurea], the “Avg. MABP in mm Hg (No. of Rats)” value was 145 mm Hg.

Turning to `O=C(c1ccccc1Cl)N(CCCCn1ccnc1)C1=Nc2cccc3cccc1c23` [N-Benz(cd)indol-2-yl-2-chloro-N-(4-(1-imidazol-1-yl)butyl)benzamide], the “Avg. MABP in mm Hg (No. of Rats)” value is listed as 80 mm Hg.

Take `O=C(c1cccc(C(F)(F)F)c1)N(CCCCn1ccnc1)C1=Nc2cccc3cccc1c23` [N-Benz(cd)indol-2-yl-N-(4-(1H-imidazol 1-yl)butyl)-3-trifluoromethylbenzamide]: the “Avg. MABP in mm Hg (No. of Rats)” value was 77 mm Hg.

Consider `O=C(O)/C=C/C(=O)O.c1cc2c3c(cccc3c1)C(NCCn1ccnc1)=N2` [N-(2-(1H-imidazol-1-yl)ethyl)benz(cd)indol-2-amine, fumarate], for which the “Avg. MABP in mm Hg (No. of Rats)” value turned out to be 97 mm Hg.

As to `O=C(c1cccs1)N(CCCCn1ccnc1)C1=Nc2cccc3cccc1c23` [N-Benz(cd)indol-2-yl-N-(4-(1H-imidazol-1-yl)butyl)-2-thiophenecarboxamide], the “Avg. MABP in mm Hg (No. of Rats)” value is reported as 86 mm Hg.

As to `Clc1ccc(C(Cn2cncn2)NC2=Nc3cccc4cccc2c34)cc1.O=C(O)/C=C/C(=O)O` (stereo not drawn) [N-(1-(4-Chlorophenyl)-2-(1H-1,2,4-triazol-1-yl)ethyl)benz(cd)indol-2-amine fumarate], the “Avg. MABP in mm Hg (No. of Rats)” value is 142 mm Hg.

`c1cc2c3c(cccc3c1)C(NOCCCCn1ccnc1)=N2` [N-(4-(1H-imidazol-1-yl)butoxy)benz(cd)indol-2-amine]: the “Avg. MABP in mm Hg (No. of Rats)” value is recorded as 111 mm Hg.

As for `Cc1csc(CCCNC2=Nc3cccc4cccc2c34)n1.O=C(O)/C=C/C(=O)O` [N-(3-(4-Methyl-2-thiazolyl)propyl)benz(cd)indol-2-amine fumarate], the “Avg. MABP in mm Hg (No. of Rats)” value stood at 122 mm Hg.

`CCCCC(=O)N(CCCCn1ccnc1)C1=Nc2cccc3cccc1c23` [N-Benz(cd)indol-2-yl-N-(4-(1H-imidazol-1-yl)butyl)pentanamide]: the “Avg. MABP in mm Hg (No. of Rats)” value is 84 mm Hg.

With `CCCCCCC(=O)N(CCCCn1ccnc1)C1=Nc2cccc3cccc1c23` [N-Benz(cd)indol-2-yl-N-(4-(1H-imidazol-1-yl)butyl)heptanamide], the “Avg. MABP in mm Hg (No. of Rats)” value was 76 mm Hg.

Take `CC(CNC1=Nc2ccc(Br)c3cccc1c23)Cn1ccnc1.Cl.Cl` (stereo not drawn) [6-Bromo-N-(3-(1H-imidazol-1-yl)-2-methylpropyl)benz(cd)indol-2-amine, dihydrochloride]: the “Avg. MABP in mm Hg (No. of Rats)” value was 107 mm Hg.

With `Cc1ccc(C(=O)N(CCCCn2ccnc2)C2=Nc3cccc4cccc2c34)cc1` [N-(Benz(cd)indol-2-yl)-N-(4-(1H-imidazol-1-yl)butyl)-4-methylbenzamide], the “Avg. MABP in mm Hg (No. of Rats)” value is reported as 82 mm Hg.

With `C(=Cc1cccnc1)CCCNC1=Nc2cccc3cccc1c23` [N-(5-(3-Pyridinyl)-4-pentenyl)benz(cd)indol-2-amine sesqui-fumarate], the “Avg. MABP in mm Hg (No. of Rats)” value is 140 mm Hg.

In the case of `O=C(O)/C=C/C(=O)O.O=C(O)/C=C/C(=O)O.OC(CNC1=Nc2cccc3cccc1c23)Cn1ccnc1` (stereo not drawn) [N-(3-(1H-imidazol-1-yl)-2-hydroxypropyl)benz(cd)indol-2-amine bis-fumarate], the “Avg. MABP in mm Hg (No. of Rats)” value is recorded as 132 mm Hg.

As for `Clc1ccc2c3c(cccc13)C(NCCCn1ccnc1)=N2` [6-Chloro-N-(3-(1H-imidazol-l-yl)propyl)benz(cd)indol-2-amine], the “Avg. MABP in mm Hg (No. of Rats)” value turned out to be 124 mm Hg.

Turning to `CC(=O)N(CCCn1cncn1)C1=Nc2cccc3cccc1c23` [N-Benz(cd)indol-2-yl-N-(3-(1H-1,2,4-triazol-1-yl)propyl)acetamide], the “Avg. MABP in mm Hg (No. of Rats)” value worked out at 118 mm Hg.

Consider `Fc1ccc2c3c(cccc13)C(NCCCn1ccnc1)=N2` [6-Fluoro-N-(3-(1H-imidazol-1-yl)propyl)benz(cd)indol-2-amine], for which the “Avg. MABP in mm Hg (No. of Rats)” value was 94 mm Hg.

In the case of `Cc1cn(CCCNC2=Nc3cccc4cccc2c34)cn1.Cl.Cl` [N-(3-(4-methyl-1H-imidazol-1-yl)propyl)benz(cd)indol-2-amine, dihydrochloride], the “Avg. MABP in mm Hg (No. of Rats)” value worked out at 106 mm Hg.

For `O=C(O)/C=C/C(=O)O.c1ccc(CSCCNC2=Nc3cccc4cccc2c34)nc1` [N-(2-((2-pyridinylmethyl)thio)ethyl)benz(cd)indol-2-amine fumarate], the “Avg. MABP in mm Hg (No. of Rats)” value is 143 mm Hg.

With `CCC(CC)(CNC1=Nc2cccc3cccc1c23)Cn1ccnc1` [N-(2-Ethyl-2-(1H-imidazol-1-yl)methyl)butylbenz(cd)indol-2-amine sesqui-fumarate], the “Avg. MABP in mm Hg (No. of Rats)” value is 112 mm Hg.

`C[N+]1=C(NCCCCn2cc[n+](C)c2)c2cccc3cccc1c23.[I-].[I-]` [N-(4-(1H-imidazol-1-yl)butyl)benz(cd)indol-2-amine dimethiodide]: the “Avg. MABP in mm Hg (No. of Rats)” value was determined as 110 mm Hg.

Consider `CN(CCCn1ccnc1)C1=Nc2cccc3cccc1c23` [N-(3-1H-imidazol-1-yl)propyl)-N-methylbenz(cd)indol-2-amine], for which the “Avg. MABP in mm Hg (No. of Rats)” value is listed as 95 mm Hg.

These data come from US5081131A, “Omega-((hetero)alkyl)benz(cd)-indol-2-amines” (American Cyanamid Company, priority 1988, dated 1992).
